Six molecules from US20090232853A1, “TREATMENT OF LAMINITIS” (priority 2005, published 2009) can be followed below.

Series [1] concerns equine digital blood vessels. The series is described as follows: isolated blood vessel work, isometric tension recording. The source says: The coronary band veins and the distal artery were dissected from equine hind limbs obtained from abattoir collections (animals euthanased for non related reasons), cut into rings of approximately 3 mm in length and prepared for isometric tension recording—a method established in the laboratory for looking at endothelium intact responses of equine digital.

Series [2] has as its system Tyrosine decarboxylase (TDC). The series is described as follows: inhibition of decarboxylase activity. The class given is biochemical. Conditions: tyrosine to tyramine by TDC. The text has this:
Tyrosine decarboxylase (TDC) decarboxylases tyrosine to tyramine.

Series [3] has as its system streptococci and lactobacilli in equine caecal contents. The series is described as follows: in vitro model of carbohydrate overload: enumeration of caecal streptococci and lactobacilli. Also noted: species or system horses. Conditions: virginiamycin 1 mg/100 ml, with corn starch or inulin. The method, then:
Use of an in vitro model of carbohydrate overload to study the change in populations of caecal streptococci and lactobacilli and to establish whether certain species of these bacteria were capable of producing vasoactive amines from amino acids.
Caecal contents from 10 horses were divided into aliquots and incubated anaerobically with either corn starch or inulin (fructan; both 1 g 100 ml). Samples were taken at 6 h intervals over a 24 h period for enumeration of streptococci, lactobacilli and Gram-negative anaerobes by a dilution method onto standard selective growth media. […]
Effects of carbohydrate overload on numbers of (a) streptococci, (b) lactobacilli and (c) Gram-negative anaerobes in equine caecal contents incubated anaerobically in vitro. […] Bacterial numbers in each aliquot at 6 h intervals were determined by serial dilution of caecal contents in sterile RPS plated onto selective growth medium. […]
Effects of virginiamycin and calcium hydrogen-phosphate on numbers of Streptococcus and Lactobacillus spp. in equine caecal contents induced by incubation with starch or inulin. […] Bacterial numbers were measured at 0 and 24 h, expressed as CFU/ml, and the magnitude of the change over this period was calculated by dividing the number of bacteria present at 24 h by the initial figure (geometric mean±s.e.m. of estimates taken from 4 separate experiments).

Series [4] relates to ponies. The series is described as follows: effect of dietary fructan carbohydrates on normal and laminitic ponies. It counts as in vivo. The source says:
Eleven adult, native breed ponies were used in the diet study; 5 normals and 6 predisposed to laminitis (asymptomatic at the time of the study). A basal hay diet was fed for 2 weeks, prior to the inclusion of inulin (sourced from chicory root; 3 g/kg body weight per day), fed in 3 equal feeds. The daily forage ration also included ⅔ hay, by weight, and ⅓ Readigrass® (to act as a source of amino acids). Fecal and blood samples were taken during both diets to measure amine concentration (by HPLC and LC-MS, respectively) and fecal pH.

Where [5] appears, read: inulin diet vs basal hay diet, FIG. 12.

Consider `CC(=O)N[C@@H](CS)C(=O)O` [NAC, N-acetyl cysteine], for which, in series [1] (antioxidant added to the medium, vs control, FIG. 14), the “relaxation of isolated digital blood vessels” value is given as “increase the relaxation above that of the control”. The “contraction of digital veins in response to vasoactive amines” value in series [1] (pre incubation in the medium, response to Tryptamine, FIG. 15) is “reduced contraction”. In the case of `C[C@@](Cc1ccc(O)c(O)c1)(NN)C(=O)O` [carbidopa], in series [2], the production of tyramine result is “inhibited”.

Regarding virginiamycin, the “effect on carbohydrate-induced increases in numbers of streptococci and lactobacilli” value in series [3] is “abrogated”. Take inulin: the signs of laminitis result in series [4] (inulin 3 g/kg body weight per day in 3 feeds, 5 normal and 6 laminitis-predisposed ponies) is recorded as “No animal showed any signs of laminitis”. Further, in series [4] (setting [5]), the “increase in tryptamine concentration” value was determined as 58.6% and the “increase in tyramine concentration” value is 23.3%. As for `O=c1c(-c2ccc(O)cc2)coc2cc(O)cc(O)c12` [genestin], the “reduction of contraction of digital veins in response to vasoactive amines” value in series [1] (flavonoid added to the medium, response to Tryptamine, FIG. 15) was found to be 30%.

For the molecule `NC(CO)C(=O)NNCc1ccc(O)c(O)c1O` (stereo not drawn) [benserazide], the production of tyramine entry in series [2] is given as “inhibited”.
